Data: PubChem BioAssay AID2060485 (Molecular Pharmacology Branch, DTP, NCI, 2025)

System: A375 multi-cell spheroids with HUVEC/MSC, viability
Test: Anticancer human tumor A375 cell line growth inhibition [GQUAD];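 further: spheroids exposed to compounds for seven days before readout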
Conditions: for IC50: curve of first compound; for viability, T/C: stronger effect = lower value
Method in brief: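 Tumor cells were grown as complex spheroids with HUVEC endothelial cells and mesenchymal stem cells as stroma. G-quadruplex stabilizers were combined with targeted agents over half-log dilutions from near the clinical Cmax, or from 10 microM.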

[1] = second compound 0.0316 µM, first compound 0.0316 µM
[2] = second compound 0.0316 µM, first compound 0.1 µM
[3] = second compound 0.0316 µM, first compound 0.316 µM
[4] = second compound 0.0316 µM, first compound 1 µM
[5] = second compound 0.0316 µM, first compound 3.16 µM
[6] = second compound 0.0316 µM, first compound 10 µM
[7] = second compound 0.1 µM, first compound 0.0316 µM
[8] = second compound 0.1 µM, first compound 0.1 µM
[9] = second compound 0.1 µM, first compound 0.316 µM
[10] = second compound 0.1 µM, first compound 1 µM
[11] = second compound 0.1 µM, first compound 3.16 µM
[12] = second compound 0.1 µM, first compound 10 µM
[13] = second compound 0.316 µM, first compound 0.0316 µM
[14] = second compound 0.316 µM, first compound 0.1 µM
[15] = second compound 0.316 µM, first compound 0.316 µM
[16] = second compound 0.316 µM, first compound 1 µM
[17] = second compound 0.316 µM, first compound 3.16 µM
[18] = second compound 0.316 µM, first compound 10 µM
[19] = second compound 1 µM, first compound 0.0316 µM
[20] = second compound 1 µM, first compound 0.1 µM
[21] = second compound 1 µM, first compound 0.316 µM
[22] = second compound 1 µM, first compound 1 µM
[23] = second compound 1 µM, first compound 3.16 µM
[24] = second compound 1 µM, first compound 10 µM
[25] = second compound 3.16 µM, first compound 0.0316 µM
[26] = second compound 3.16 µM, first compound 0.1 µM
[27] = second compound 3.16 µM, first compound 0.316 µM
[28] = second compound 3.16 µM, first compound 1 µM
[29] = second compound 3.16 µM, first compound 3.16 µM
[30] = second compound 3.16 µM, first compound 10 µM
[31] = second compound 10 µM, first compound 0.0316 µM
[32] = second compound 10 µM, first compound 0.1 µM
[33] = second compound 10 µM, first compound 0.316 µM
[34] = second compound 10 µM, first compound 1 µM
[35] = second compound 10 µM, first compound 3.16 µM
[36] = second compound 10 µM, first compound 10 µM

C=CCn1c(=O)c2cnc(Nc3ccc(N4CCN(C)CC4)cc3)nc2n1-c1cccc(C(C)(C)O)n1 + Cc1cnc(CNC(=O)c2c(=O)c3ccc(N4CCCN(C)CC4)nc3n3c2sc2ccccc23)cn1
IC50 (second compound 0.0316 µM): 900 nM | IC50 (second compound 0.1 µM): 408 nM | IC50 (second compound 0.316 µM): 96.7 nM | IC50 (second compound 1 µM): < 31.6 nM | IC50 (second compound 3.16 µM): < 31.6 nM | IC50 (second compound 10 µM): < 31.6 nM | viability, T/C [1]: 93.1% | viability, T/C [2]: 95.3% | viability, T/C [3]: 81% | viability, T/C [4]: 48.3% | viability, T/C [5]: 12.3% | viability, T/C [6]: 9.5% | viability, T/C [7]: 70.2% | viability, T/C [8]: 69.7% | viability, T/C [9]: 50.6% | viability, T/C [10]: 38% | viability, T/C [11]: 15.1% | viability, T/C [12]: 9.57% | viability, T/C [13]: 57.6% | viability, T/C [14]: 50.6% | viability, T/C [15]: 36.7% | viability, T/C [16]: 28.1% | viability, T/C [17]: 14.9% | viability, T/C [18]: 10.7% | viability, T/C [19]: 37.1% | viability, T/C [20]: 33.7% | viability, T/C [21]: 31.6% | viability, T/C [22]: 25.3% | viability, T/C [23]: 16.1% | viability, T/C [24]: 11.4% | viability, T/C [25]: 32% | viability, T/C [26]: 33.6% | viability, T/C [27]: 27.2% | viability, T/C [28]: 25.7% | viability, T/C [29]: 17% | viability, T/C [30]: 12% | viability, T/C [31]: 28.8% | viability, T/C [32]: 28.9% | viability, T/C [33]: 26.8% | viability, T/C [34]: 21.6% | viability, T/C [35]: 16.8% | viability, T/C [36]: 13.8%

CCCS(=O)(=O)Nc1ccc(F)c(C(=O)c2c[nH]c3ncc(-c4ccc(Cl)cc4)cc23)c1F + Cc1cnc(CNC(=O)c2c(=O)c3ccc(N4CCCN(C)CC4)nc3n3c2sc2ccccc23)cn1
IC50 (second compound 0.0316 µM): < 31.6 nM | IC50 (second compound 0.1 µM): < 31.6 nM | IC50 (second compound 0.316 µM): < 31.6 nM | IC50 (second compound 1 µM): < 31.6 nM | IC50 (second compound 3.16 µM): < 31.6 nM | IC50 (second compound 10 µM): < 31.6 nM | viability, T/C [1]: 34.1% | viability, T/C [2]: 16.2% | viability, T/C [3]: 9.28% | viability, T/C [4]: 8.24% | viability, T/C [5]: 5.87% | viability, T/C [6]: 7.01% | viability, T/C [7]: 27.9% | viability, T/C [8]: 14.7% | viability, T/C [9]: 10.1% | viability, T/C [10]: 6.6% | viability, T/C [11]: 5.83% | viability, T/C [12]: 5.93% | viability, T/C [13]: 23.5% | viability, T/C [14]: 14% | viability, T/C [15]: 7.97% | viability, T/C [16]: 6.65% | viability, T/C [17]: 5.74% | viability, T/C [18]: 3.51% | viability, T/C [19]: 21.8% | viability, T/C [20]: 13.2% | viability, T/C [21]: 8.1% | viability, T/C [22]: 6.44% | viability, T/C [23]: 6.08% | viability, T/C [24]: 2.62% | viability, T/C [25]: 16.2% | viability, T/C [26]: 11.3% | viability, T/C [27]: 8.15% | viability, T/C [28]: 7.91% | viability, T/C [29]: 6.35% | viability, T/C [30]: 0.08% | viability, T/C [31]: 16% | viability, T/C [32]: 13.5% | viability, T/C [33]: 8.99% | viability, T/C [34]: 7.73% | viability, T/C [35]: 6.2% | viability, T/C [36]: 0.13%

CC(C)n1c(=O)n(C)c2cnc3cc(F)c(-c4ccc(OCCCN5CCCCC5)nc4)cc3c21 + Cc1cnc(CNC(=O)c2c(=O)c3ccc(N4CCCN(C)CC4)nc3n3c2sc2ccccc23)cn1
IC50 (second compound 0.0316 µM): > 10000 nM | IC50 (second compound 0.1 µM): > 10000 nM | IC50 (second compound 0.316 µM): 778 nM | IC50 (second compound 1 µM): 85.3 nM | IC50 (second compound 3.16 µM): < 31.6 nM | IC50 (second compound 10 µM): < 31.6 nM | viability, T/C [1]: 108% | viability, T/C [2]: 90.5% | viability, T/C [3]: 98.4% | viability, T/C [4]: 82.2% | viability, T/C [5]: 72.5% | viability, T/C [6]: 58.7% | viability, T/C [7]: 77.6% | viability, T/C [8]: 64.2% | viability, T/C [9]: 74.2% | viability, T/C [10]: 63.4% | viability, T/C [11]: 55.5% | viability, T/C [12]: 50.7% | viability, T/C [13]: 60.5% | viability, T/C [14]: 53.1% | viability, T/C [15]: 53% | viability, T/C [16]: 49.8% | viability, T/C [17]: 45.6% | viability, T/C [18]: 37.6% | viability, T/C [19]: 56% | viability, T/C [20]: 47.4% | viability, T/C [21]: 40.4% | viability, T/C [22]: 45.2% | viability, T/C [23]: 40.3% | viability, T/C [24]: 30.5% | viability, T/C [25]: 43.7% | viability, T/C [26]: 41.9% | viability, T/C [27]: 40% | viability, T/C [28]: 36.8% | viability, T/C [29]: 37.2% | viability, T/C [30]: 28.4% | viability, T/C [31]: 35.8% | viability, T/C [32]: 39% | viability, T/C [33]: 38.9% | viability, T/C [34]: 34.2% | viability, T/C [35]: 30.3% | viability, T/C [36]: 22.8%

Cc1cccc(N(C)C(=O)C2C(O)CCN2c2nc(C)cc(C(F)(F)F)c2C#N)c1 (stereo not drawn) + Cc1[nH]c2ccc(F)cc2c1-c1nc2c3cccnc3c3ncccc3c2[nH]1
IC50 (second compound 0.0316 µM): > 10000 nM | IC50 (second compound 0.1 µM): > 10000 nM | IC50 (second compound 0.316 µM): > 10000 nM | IC50 (second compound 1 µM): > 10000 nM | IC50 (second compound 3.16 µM): > 10000 nM | IC50 (second compound 10 µM): > 10000 nM | viability, T/C [1]: 102% | viability, T/C [2]: 102% | viability, T/C [3]: 94.8% | viability, T/C [4]: 98.6% | viability, T/C [5]: 95.5% | viability, T/C [6]: 95.2% | viability, T/C [7]: 106% | viability, T/C [8]: 94.5% | viability, T/C [9]: 105% | viability, T/C [10]: 108% | viability, T/C [11]: 104% | viability, T/C [12]: 103% | viability, T/C [13]: 98.1% | viability, T/C [14]: 100% | viability, T/C [15]: 93.5% | viability, T/C [16]: 111% | viability, T/C [17]: 111% | viability, T/C [18]: 107% | viability, T/C [19]: 95.7% | viability, T/C [20]: 101% | viability, T/C [21]: 106% | viability, T/C [22]: 109% | viability, T/C [23]: 103% | viability, T/C [24]: 105% | viability, T/C [25]: 80% | viability, T/C [26]: 90.2% | viability, T/C [27]: 94.7% | viability, T/C [28]: 84.2% | viability, T/C [29]: 89.5% | viability, T/C [30]: 79.4% | viability, T/C [31]: 106% | viability, T/C [32]: 100% | viability, T/C [33]: 112% | viability, T/C [34]: 106% | viability, T/C [35]: 97.6% | viability, T/C [36]: 91.7%
